Measurements: patent US20230303503A1, “CELL ACTIVATABLE IRON CHELATORS” (BOARD OF REGENTS, THE UNIVERSITY OF TEXAS SYSTEM, priority 2020, published 2023)
Values joined by “and” are separate entries in the source; they are usually repeats but may differ in a detail not shown here. Identical values can stand only once. Like-named read-outs stand apart in the source and are kept apart here.

How the values were obtained:
[1] = Behaviour in aqueous media (solubility, aggregation, DLS); type: physicochemical; conditions: water; neutral pH for ExJade
Method: Several new ExJade derivatives, designed to control solubility and modulate the intrinsic electronic features, namely ExPh, ExPh-OMe, ExH, ExBT, ExBT-OMe and ExPhos, were prepared. […] In marked contrast to what is seen in aqueous environments, solutions of ExPh and ExBT in most common organic solvents display no appreciable emission.
No significant fluorescence quenching was seen upon changing the solvents in which ExPh-OMe and ExBT-OMe were analyzed - DMSO, PhMe, THF, DCM, acetone, MeCN, MeOH and PBS. […] This putative ICT phenomenon has been observed in structurally similar N-phenylpyrrole analogues (Yoshihara et al., 2005; Yoshihara et al., 2003). Further support for the proposed aqueous induced aggregation mechanism invoked in the case of ExPh and […] came from studies of the parent system, ExJade.

[2] = tested on: A549 human lung cancer cell line; test: MTT cell viability / antiproliferative assay in A549 cells; type: cell-based; conditions: for IC50: A549, MTT, triplicate
Method: Cell culture. A549 cells (ATCC® CCL-185™) were maintained in growth medium consisting of RPMI 1640 Medium (Sigma-Aldrich, MO, USA) supplemented with 10% fetal bovine serum (Sigma-Aldrich, MO, USA) and 2% Penicillin/Streptomycin (Sigma-Aldrich, MO, USA). Cells were kept in a humidified atmosphere of 5% CO2 and 95% air at 37° C. and were split when they reached 90% confluency.
Cell viability assay. 1500 cells per well were plated on a 96-well plate (12 rows × 8 wells per row) in 100 µL growth medium and kept at 37° C. under 5% CO2. 24 h after seeding, cells were treated with another 100 µL growth medium containing different concentrations of the drug under evaluation. Cells in each row of the 96-well plate were treated with the same concentration of drug and the first two rows were kept as control and treated with growth medium alone. The highest drug concentration evaluated was 250 µM and lower concentrations were produced via serial dilution by a factor of 3. Treated cells were kept at 37° C. under 5% CO2 for 72 h. Then, 50 µL RPMI 1640 Medium without fetal bovine serum and penicillin/streptomycin containing 3 mg/mL 3-(4,5-dimethylthiazol-2-yl)-2,5-diphenyltetrazolium bromide (Sigma-Aldrich, MO, USA) was added to each well and cells were kept at 37° C. under 5% CO2 for another 4 h. Subsequently, the medium was removed, and the precipitated formazan dye taken up in DMSO (50 µL). The absorbance of the solutions was measured at 540 nm with an M5 microplate reader (Molecular Devices, USA) and 0.33 absorbance units were subtracted from all wells (this absorbance value corresponds to wells containing DMSO without dye - control). The absorbance of each row of wells were averaged and were directly proportional to the number of viable cells after drug treatment.
The antiproliferative activity of compounds 1-10 was evaluated in A549 lung cancer cells, a cell line with a well- established sensitivity to iron imbalance (Loza-Rosas et al., 2017; Ohara et al., 2013). For each compound, cellular proliferation profiles were produced via a standard MTT (3-(4,5-dimethylthiazol-2-yl)-2,5-diphenyltetrazolium bromide) assay for exposure times of 72 h and 24 h, respectively. From these proliferation profiles, averaged IC50 values and Hill slope (HS) parameters were determined via linear regression analysis.

[3] = tested on: Klebsiella pneumoniae (ATCC 13883); test: Bacterial growth inhibition; type: cell-based
Method: (§1) Similarly, the bacterial inhibitory effect of the present ExJade derivatives was then evaluated. Initial tests were focused on two Gram-negative, ESKAPE bacteria (Mulani et al., 2019), Pseudomonas aeruginosa (ATCC 27853) and Klebsiella pneumoniae (ATCC 13883). Arbekacin, an FDA-approved aminoglycoside-based antibiotic, was used as positive control.

MRSA biofilms = test: Live/dead biofilm viability assay on glass slides; type: cell-based, Staphylococcus aureus; conditions: CFP-SUL 16 µg/mL alone or combined with chelator 64 µg/mL
Method: (§2) FIGS. 11A & 11B show biofilm experiments. (FIG. 11A) Evaluation of CFP-SUL (cefoperazone-sulbactam; 16 µg/mL), CFP-SUL@ExBT (16 µg/mL@64 µg/mL), CFP-SUL@deferasirox (16 µg/mL@64 µg/mL), and CFP-SUL@ExPhos (16 µg/mL@64 µg/mL) for the treatment of P. aeruginosa and MRSA biofilms. Processed 3D images of P. aeruginosa and MRSA biofilms on glass slides using the live/dead biofilm viability assay. Distributions of PI-stained (red, dead bacteria) and Syto9-stained (green, live bacteria) (FIG. 11B) P. aeruginosa and MRSA biovolumes and CFU counts (purple dots) for the above groups. Biovolume data are mean values of three independent replicates.
(§3) Biofilm experiments were carried out on glass slides with both Pseudomonas aeruginosa and MRSA. The therapeutic performance of the broad-spectrum antibiotic cefoperazonesulbactam (CFP-SUL) (Sheu et al., 2020) was evaluated on its own and in combination with deferasirox, ExBT, and ExPhos using the live/dead biofilm caption viability assay (propidium iodide (PI): dead, red; Syto9: live, green).

P. aeruginosa biofilms = test: Live/dead biofilm viability assay on glass slides; type: cell-based, Pseudomonas aeruginosa; conditions: CFP-SUL 16 µg/mL alone or combined with chelator 64 µg/mL
Method: as §2, §3

[4] = tested on: methicillin-resistant Staphylococcus aureus (MRSA, ATCC 43300); test: Inhibition of drug-resistant bacteria (colonies, cell viability); type: cell-based; conditions: agar and defibrillated amniotic blood
Method: Cell viability of (FIG. 4B) MRSA (ATCC 43300) and (FIG. 4C) VRE (ATCC 51299) before and after treatment with ExBT, ExJade, ExPhos, and arbekacin (15 µM).
More importantly, two clinically relevant gram-positive, drug-resistant bacteria, methicillin-resistant Staphylococcus aureus (MRSA, ATCC 43300) and vancomycin-resistant Enterococcus faecalis (VRE, ATCC 51299) with high ALP activity were then used to evaluate further the therapeutic potential of these ExJade derivatives. Again, arbekacin was used as a positive control. […] The observed inhibition of VRE is of particular significance since there are few clinically available treatments for this multidrug-resistant bacterium.
(§4) This observation confirms the Fe(III) chelation dependent inhibitory activity. Due to the Fe(III) chelation dependent nature of the ExJade derivatives and to illustrate their potential “real life” utility, the inhibitory activity of ExBT and ExPhos against MRSA were evaluated in a blood containing medium consisting of agar and defibrillated amniotic blood (Filipowicz et al., 2003).

[5] = tested on: Pseudomonas aeruginosa (ATCC 27853); test: Bacterial growth inhibition; type: cell-based
Method: as §1, §4

[6] = tested on: alkaline phosphatase (ALP); test: Alkaline phosphatase response of the pro-chelator (fluorescence); type: biochemical; conditions: 15 µM, ALP 0-64 U
Excerpt: This ratiometric change in fluorescence emission was ascribed to the gradual and stepwise dephosphorylation of ExPhos, which was confirmed by LC-MS analysis. ExPhos solutions exposed to ALP (64 U ALP) were subsequently treated with increasing concentrations of Fe(III) (as the FeCl3 salt). […] Based on these findings, we considered it likely that ExPhos could serve as an ALP-responsive Fe(III) pro-chelator.
Recently, protected versions of known metal chelators (“prochelators”) have been explored in an effort to avoid premature metal chelation (Wang et al., 2016). The bis-phosphate ester ExPhos was thus prepared as a phosphatase-responsive fluorescent pro-chelator that would permit detection of a disease-based biomarker (i.e., alkaline phosphatase, ALP) (Zhang et al., 2020; McCullough and Barrios, 2020; Haarhaus et al., 2017; Gwynne et al., 2019). […] Timedependent changes in fluorescence emission intensity were also seen. The limit of detection (LoD) was calculated to be 0.016 75 U (measurements performed after 5 min of incubation). The ratiometric change in the fluorescence emission was ascribed to the gradual and stepwise (bis-phosphate ester to monophosphate ester to bisphenol) dephosphorylation of ExPhos (as confirmed by LCMS analyses). This sequential conversion leads to a rapid decrease in the blue emission and a slow increase in the green emission. […]

[7] = 24 h incubation, read-out: IC50 (24 h)
[8] = 72 h incubation, read-out: IC50 (72 h)

| Compound | solubility in aqueous media [1] | IC50 [2, 7] | IC50 [2, 8] | inhibition of bacterial growth [3] | inhibition of bacterial growth [5] | further results |
| --- | --- | --- | --- | --- | --- | --- |
| O=C(O)c1ccc(-n2nc(-c3ccccc3O)nc2-c2ccccc2O)cc1 [Compound 1, deferasirox, reference compound] | good solubility |  |  |  |  | cytotoxicity when cells were supplemented with FeCl3 ([2]; A549, 50 µM FeCl3, 72 h of exposure): no longer produced any observable cytotoxicity; IC50 ([2]; Homo sapiens, 24 h incubation, read-out: IC50 (24 h)): > 50 µM; IC50 ([2]; Homo sapiens, 72 h incubation, read-out: IC50 (72 h)): 8.5 µM |
| COC(=O)c1ccc(-n2nc(-c3ccccc3O)nc2-c2ccccc2O)cc1 [Compound 2] |  | 21 ± 3 µM | 1.6 µM and 2.5 µM |  |  |  |
| O=C(c1ccc(-n2nc(-c3ccccc3O)nc2-c2ccccc2O)cc1)N1CCOCC1 [Compound 4] |  | > 50 µM | 2.6 µM and 3.6 µM |  |  |  |
| Oc1ccccc1-c1nc(-c2ccccc2O)n(-c2ccc(-c3nc4ccccc4s3)cc2)n1 [ExBT] | insoluble aggregates |  |  | capable of inhibiting the growth | capable of inhibiting the growth | antibiofilm effect (MRSA biofilms): enhanced; antibiofilm effect (P. aeruginosa biofilms): enhanced; inhibitory activity in blood containing medium [4]: remaining strong |
| Oc1ccccc1-c1nc(-c2ccccc2O)n(-c2ccccc2)n1 [ExPh] | insoluble aggregates |  |  | capable of inhibiting the growth | capable of inhibiting the growth |  |
| O=P(O)(O)Oc1ccccc1-c1nc(-c2ccccc2OP(=O)(O)O)n(-c2ccc(-c3nc4ccccc4s3)cc2)n1 [ExPhos] |  |  |  | capable of inhibiting the growth | capable of inhibiting the growth | antibiofilm effect (MRSA biofilms): enhanced; antibiofilm effect (P. aeruginosa biofilms): enhanced; inhibitory activity in blood containing medium [4]: remaining strong; cytotoxicity towards A549 cells ([2]; pro-chelator, in words): no significant cytotoxicity; change in fluorescence emission in the presence of ALP [6]: dose dependent change |
| O=C1[O][Pt]2([NH][C@@H]3CCCC[C@H]3[NH]2)[O]C1=O [Ox-Pt, oxaliplatin, reference compound] |  | > 50 µM | 0.5 ± 0.1 µM |  |  |  |
